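Dose response: 5 concentrations. Exposure: 48 h. Format: 96-well plates. Endpoint: linear interpolation; highest concentration if not reached. TGI is the concentration that stops growth completely.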
Experiments:
Assay in all cases: growth of human tumour cells (NCI), 48 h
[1] = system: HCT-116 colon
[2] = system: BT-549 breast
[3] = system: TK-10 renal
[4] = system: SNB-19 CNS
[5] = system: OVCAR-3 ovarian
[6] = system: HOP-92 NSCLC
[7] = system: HOP-62 NSCLC
[8] = system: NCI-H23 lung
[9] = system: SF-268 CNS
[10] = system: MALME-3M melanoma
[11] = system: RXF 393 renal
[12] = system: SR leukemia
[13] = system: UO-31 renal
[14] = system: OVCAR-4 ovarian
[15] = system: SK-MEL-2 melanoma
[16] = system: A549 NSCLC
[17] = system: OVCAR-8 ovarian
[18] = system: MDA-MB-435
[19] = system: NCI-H460 lung
[20] = system: MOLT-4 leukemia
[21] = system: SK-MEL-5 melanoma
[22] = system: SN12C renal
[23] = system: NCI/ADR-RES ovarian
[24] = system: IGROV1 ovarian
[25] = system: ACHN renal
[26] = system: MDA-N
[27] = system: EKVX NSCLC
[28] = system: NCI-H522 lung
[29] = system: MCF7 breast
[30] = system: SF-295 CNS
[31] = system: UACC-257 melanoma
[32] = system: NCI-H226 lung
[33] = system: SK-MEL-28 melanoma
[34] = system: UACC-62 melanoma
[35] = system: SW-620 colon
[36] = system: DU-145 prostate
[37] = system: RPMI-8226 leukemia
[38] = system: SK-OV-3 ovarian
[39] = system: CAKI-1 renal
[40] = system: 786-0 renal
[41] = system: HT29 colon
[42] = system: MDA-MB-231 breast
[43] = system: K-562 leukemia
[44] = system: COLO 205 colon
[45] = system: PC-3 prostate
[46] = system: U251 CNS
[47] = system: SNB-75 CNS
[48] = system: SF-539 CNS
[49] = system: OVCAR-5 ovarian
[50] = system: CCRF-CEM leukemia
[51] = system: HCC-2998 colon
[52] = system: LOX IMVI melanoma
[53] = system: HCT-15 colon
[54] = system: M14 melanoma
[55] = system: KM12 colon
[56] = system: A498 renal
[57] = system: T-47D breast
[58] = system: HL-60(TB) leukemia
[59] = system: HS 578T breast

Compound: CC1(CCCCO)C=CC(S(=O)(=O)c2ccccc2)CC1 (stereo unspecified)
- TGI [1]: 12.6 µM
- TGI [2]: 27.5 µM
- TGI [3]: 19.1 µM
- TGI [4]: 26.6 µM
- TGI [5]: 19 µM
- TGI [6]: 7.04 µM
- TGI [7]: 12.1 µM
- TGI [8]: 17.8 µM
- TGI [9]: 12.4 µM
- TGI [10]: 12.1 µM
- TGI [11]: 17 µM
- TGI [12]: 6.71 µM
- TGI [13]: 16.3 µM
- TGI [14]: 22.8 µM
- TGI [15]: 23.1 µM
- TGI [16]: 13.6 µM
- TGI [17]: 23.2 µM
- TGI [18]: 21.8 µM
- TGI [19]: 13.2 µM
- TGI [20]: 14.9 µM
- TGI [21]: 15.4 µM
- TGI [22]: 23.6 µM
- TGI [23]: 12.5 µM
- TGI [24]: 12.1 µM
- TGI [25]: 18.1 µM
- TGI [26]: 14.4 µM
- TGI [27]: 18 µM
- TGI [28]: 10.4 µM
- TGI [29]: 11.3 µM
- TGI [30]: 24.4 µM
- TGI [31]: 10.9 µM
- TGI [32]: 9.03 µM
- TGI [33]: 28.5 µM
- TGI [34]: 18.3 µM
- TGI [35]: 20.6 µM
- TGI [36]: 17.7 µM
- TGI [37]: 11 µM
- TGI [38]: 22.7 µM
- TGI [39]: 23.9 µM
- TGI [40]: 14.8 µM
- TGI [41]: 5.91 µM
- TGI [42]: 16.4 µM
- TGI [43]: 11.6 µM
- TGI [44]: 14.4 µM
- TGI [45]: 15.1 µM
- TGI [46]: 21.5 µM
- TGI [47]: 13.3 µM
- TGI [48]: 20.2 µM
- TGI [49]: 17.5 µM
- TGI [50]: 11.2 µM
- TGI [51]: 19.6 µM
- TGI [52]: 3.65 µM
- TGI [53]: 13.3 µM
- TGI [54]: 12.2 µM
- TGI [55]: 8.45 µM
- TGI [56]: 21.7 µM

Compound: Cc1cc2c3c(c1)CCCN3CCC2
- TGI [1]: > 10 µM
- TGI [3]: > 10 µM
- TGI [4]: > 10 µM
- TGI [5]: > 10 µM
- TGI [6]: > 10 µM
- TGI [7]: > 10 µM
- TGI [57]: > 10 µM
- TGI [8]: > 10 µM
- TGI [9]: > 10 µM
- TGI [10]: > 10 µM
- TGI [11]: > 10 µM
- TGI [12]: > 10 µM
- TGI [13]: > 10 µM
- TGI [14]: > 10 µM
- TGI [15]: > 10 µM
- TGI [16]: > 10 µM
- TGI [17]: > 10 µM
- TGI [18]: > 10 µM
- TGI [19]: > 10 µM
- TGI [20]: > 10 µM
- TGI [21]: > 10 µM
- TGI [22]: > 10 µM
- TGI [23]: > 10 µM
- TGI [24]: > 10 µM
- TGI [25]: > 10 µM
- TGI [26]: > 10 µM
- TGI [27]: > 10 µM
- TGI [28]: > 10 µM
- TGI [29]: > 10 µM
- TGI [30]: > 10 µM
- TGI [31]: > 10 µM
- TGI [32]: > 10 µM
- TGI [33]: > 10 µM
- TGI [34]: > 10 µM
- TGI [58]: > 10 µM
- TGI [35]: > 10 µM
- TGI [36]: > 10 µM
- TGI [37]: > 10 µM
- TGI [38]: > 10 µM
- TGI [39]: > 10 µM
- TGI [40]: > 10 µM
- TGI [41]: > 10 µM
- TGI [42]: > 10 µM
- TGI [43]: > 10 µM
- TGI [44]: > 10 µM
- TGI [45]: > 10 µM
- TGI [46]: > 10 µM
- TGI [47]: > 10 µM
- TGI [48]: > 10 µM
- TGI [50]: > 10 µM
- TGI [51]: > 10 µM
- TGI [52]: > 10 µM
- TGI [53]: > 10 µM
- TGI [54]: > 10 µM
- TGI [59]: > 10 µM
- TGI [55]: > 10 µM
- TGI [56]: > 10 µM

Compound: FC(F)(F)c1cnc(N/N=C(/c2ccccc2)c2ccccn2)c(Cl)c1
- TGI [1]: 12.1 µM
- TGI [2]: 29.8 µM
- TGI [4]: 50.9 µM
- TGI [5]: 11.7 µM
- TGI [6]: 23.2 µM
- TGI [7]: 20.3 µM
- TGI [8]: 25.1 µM
- TGI [9]: 21.8 µM
- TGI [11]: 32.5 µM
- TGI [12]: 55.3 µM
- TGI [13]: 21.7 µM
- TGI [14]: 24.8 µM
- TGI [15]: 24.4 µM
- TGI [16]: 14.8 µM
- TGI [17]: 5.79 µM
- TGI [18]: > 100 µM
- TGI [19]: 10.5 µM
- TGI [20]: > 100 µM
- TGI [21]: 21.2 µM
- TGI [22]: > 100 µM
- TGI [23]: 6.92 µM
- TGI [24]: 11.5 µM
- TGI [25]: 13.2 µM
- TGI [26]: > 100 µM
- TGI [27]: 17.5 µM
- TGI [28]: 4.74 µM
- TGI [29]: 6.7 µM
- TGI [30]: 11 µM
- TGI [31]: 11.5 µM
- TGI [32]: 50.4 µM
- TGI [33]: > 100 µM
- TGI [34]: 23.1 µM
- TGI [35]: > 100 µM
- TGI [36]: 51.3 µM
- TGI [37]: > 100 µM
- TGI [38]: 17.9 µM
- TGI [39]: 19.6 µM
- TGI [40]: 17.9 µM
- TGI [41]: 18.8 µM
- TGI [42]: 32 µM
- TGI [43]: > 100 µM
- TGI [44]: 20.6 µM
- TGI [45]: 24.6 µM
- TGI [46]: 30.4 µM
- TGI [47]: 16 µM
- TGI [48]: 14.4 µM
- TGI [49]: 31.5 µM
- TGI [50]: 17.6 µM
- TGI [51]: 24.8 µM
- TGI [53]: 33.7 µM
- TGI [54]: 15.7 µM
- TGI [59]: 26.9 µM
- TGI [55]: 26.3 µM

Compound: C=CC1(O)CCCC=C1COCc1ccccc1 (stereo unspecified)
- TGI [1]: > 100 µM
- TGI [3]: > 100 µM
- TGI [4]: > 100 µM
- TGI [6]: > 100 µM
- TGI [7]: > 100 µM
- TGI [57]: > 100 µM
- TGI [8]: > 100 µM
- TGI [9]: > 100 µM
- TGI [10]: > 100 µM
- TGI [11]: > 100 µM
- TGI [12]: 57 µM
- TGI [13]: > 100 µM
- TGI [14]: > 100 µM
- TGI [15]: > 100 µM
- TGI [16]: > 100 µM
- TGI [17]: > 100 µM
- TGI [18]: > 100 µM
- TGI [19]: > 100 µM
- TGI [20]: 66.7 µM
- TGI [21]: > 100 µM
- TGI [22]: > 100 µM
- TGI [23]: > 100 µM
- TGI [24]: 35.3 µM
- TGI [25]: > 100 µM
- TGI [26]: > 100 µM
- TGI [27]: > 100 µM
- TGI [28]: 32.4 µM
- TGI [29]: > 100 µM
- TGI [30]: > 100 µM
- TGI [31]: > 100 µM
- TGI [32]: > 100 µM
- TGI [33]: > 100 µM
- TGI [34]: > 100 µM
- TGI [58]: 72.2 µM
- TGI [36]: > 100 µM
- TGI [37]: 68.3 µM
- TGI [38]: > 100 µM
- TGI [39]: > 100 µM
- TGI [40]: > 100 µM
- TGI [41]: > 100 µM
- TGI [42]: > 100 µM
- TGI [43]: > 100 µM
- TGI [44]: > 100 µM
- TGI [45]: > 100 µM
- TGI [46]: > 100 µM
- TGI [47]: > 100 µM
- TGI [49]: > 100 µM
- TGI [50]: > 100 µM
- TGI [51]: > 100 µM
- TGI [52]: 40.7 µM
- TGI [53]: > 100 µM
- TGI [54]: > 100 µM
- TGI [59]: > 100 µM
- TGI [55]: > 100 µM
- TGI [56]: > 100 µM

Reference: PubChem BioAssay (NCI)
